From PMC12051055, “Spectroscopy and crystallography define carotenoid oxygenases as a new subclass of mononuclear non-heme Fe^II enzymes” (The Journal of Biological Chemistry, 2025)

Target: T1, CAO1 (Neurospora crassa carotenoid oxygenase 1) (Neurospora crassa, UniProt Q7S860)
T1 construct: gene cao-1
T1 sequence (Q7S860 1-526): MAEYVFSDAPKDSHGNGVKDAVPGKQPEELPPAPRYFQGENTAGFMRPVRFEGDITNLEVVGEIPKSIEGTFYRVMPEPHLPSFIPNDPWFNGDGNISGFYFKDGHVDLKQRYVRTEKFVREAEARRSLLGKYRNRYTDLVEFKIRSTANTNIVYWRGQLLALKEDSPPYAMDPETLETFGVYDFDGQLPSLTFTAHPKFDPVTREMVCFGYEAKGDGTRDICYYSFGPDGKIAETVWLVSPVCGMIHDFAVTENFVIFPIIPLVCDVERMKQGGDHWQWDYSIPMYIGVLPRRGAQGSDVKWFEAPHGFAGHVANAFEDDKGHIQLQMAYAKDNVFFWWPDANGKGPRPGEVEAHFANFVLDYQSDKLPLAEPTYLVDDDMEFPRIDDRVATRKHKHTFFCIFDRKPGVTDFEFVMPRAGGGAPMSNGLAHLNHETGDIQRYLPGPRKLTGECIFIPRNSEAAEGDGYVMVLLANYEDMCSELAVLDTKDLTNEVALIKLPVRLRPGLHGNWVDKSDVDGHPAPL
Test: UV-visible/CD titration of Fe(II)-CAO1 (anaerobic); also X-ray crystal structure, MCD, steady-state kinetics
Type: binding

With `Oc1cc(O)cc(/C=C/c2ccc(O)c(O)c2)c1` [piceatannol] the Kd was 50 nM.
